Like-named read-outs stand apart in the source and are kept apart here.
Experiment: Migration through porcine skin tissue under electric field (modified Franz apparatus)
Experimental: The effect of an electric field was explored on migration through the subcutis using fresh porcine abdominal skin tissue obtained from local abattoirs. To do this, a modified Franz apparatus was developed that could test up to 12 samples simultaneously (FIGS. 12A, 12B). Full-thickness porcine skin tissue plugs that were three cm in diameter were placed subcutis-down in individual wells over reservoirs containing cathodes below 2 ml of test solution. The device was then inverted to run the experiments.
Tissue and test solution were maintained at 37° C. using a heat lamp and monitored with a digital thermometer probe placed between the plexiglass plates, adjacent to the tissues. Anodes were inserted into conductive paste placed on the epidermal surface. Utilizing multiple electrophoresis power sources, 10V or 20V of electromotive potential was then run across each cathode-anode pair for one hour.
We tested the apparatus using a solution of bromophenol blue (BPB), a 0.67 kDa dye that appears blue above pH 4.6 and carries a negative charge near neutral pH similar to that of insulin. […]
One microscope slide was stained with H&E; an adjacent slide was stained with a Guinea pig polyclonal antibody (Ab) (Abcam ab7842), which was detected by a goat anti-Guinea pig polyclonal IgG H&L (Alexa Fluor® 594; Abcam ab150188).

Compound	migration through porcine skin layers with voltage applied (10 V, 37° C., about one hour, test solution on subcutaneous surface)	migration through porcine skin layers with voltage applied
O=S1(=O)OC(c2cc(Br)c(O)c(Br)c2)(c2cc(Br)c(O)c(Br)c2)c2ccccc21 [bromophenol blue]	dye penetrated through the subcutis in voltage-treated tissue	
Cy5-insulin: human insulin conjugated to cyanine-5-NHS-ester fluorophore (P/N IS1-S5-1, Nanocs, Inc.)		migration of the fluorescence-tagged insulin through the full skin thickness
